In PubChem BioAssay AID1963981 (Molecular Pharmacology Branch, DTP, NCI, 2024):

Tested on: 354836-022-R-J1-PDC multicell spheroid viability
Assay: Anticancer human tumor 354836-022-R-J1-PDC patient-derived head and neck squamous cell carcinoma cell line growth inhibition [PI3K]
Conditions: for IC50: curve of first compound; for viability, T/C: stronger effect = lower value
Procedure, shortened: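 Targeted small molecules plus PI3K inhibitors, half-log dose series from Cmax (default top 10 microM), were applied to heterotypic spheroids of cancer cells with HUVEC and MSCs. Viability indicated growth inhibition.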

[1] = second compound 0.0316 µM, first compound 0.0316 µM
[2] = second compound 0.0316 µM, first compound 0.1 µM
[3] = second compound 0.0316 µM, first compound 0.316 µM
[4] = second compound 0.0316 µM, first compound 1 µM
[5] = second compound 0.0316 µM, first compound 3.16 µM
[6] = second compound 0.0316 µM, first compound 10 µM
[7] = second compound 0.1 µM, first compound 0.0316 µM
[8] = second compound 0.1 µM, first compound 0.1 µM
[9] = second compound 0.1 µM, first compound 0.316 µM
[10] = second compound 0.1 µM, first compound 1 µM
[11] = second compound 0.1 µM, first compound 3.16 µM
[12] = second compound 0.1 µM, first compound 10 µM
[13] = second compound 0.316 µM, first compound 0.0316 µM
[14] = second compound 0.316 µM, first compound 0.1 µM
[15] = second compound 0.316 µM, first compound 0.316 µM
[16] = second compound 0.316 µM, first compound 1 µM
[17] = second compound 0.316 µM, first compound 3.16 µM
[18] = second compound 0.316 µM, first compound 10 µM
[19] = second compound 1 µM, first compound 0.0316 µM
[20] = second compound 1 µM, first compound 0.1 µM
[21] = second compound 1 µM, first compound 0.316 µM
[22] = second compound 1 µM, first compound 1 µM
[23] = second compound 1 µM, first compound 3.16 µM
[24] = second compound 1 µM, first compound 10 µM
[25] = second compound 3.16 µM, first compound 0.0316 µM
[26] = second compound 3.16 µM, first compound 0.1 µM
[27] = second compound 3.16 µM, first compound 0.316 µM
[28] = second compound 3.16 µM, first compound 1 µM
[29] = second compound 3.16 µM, first compound 3.16 µM
[30] = second compound 3.16 µM, first compound 10 µM
[31] = second compound 10 µM, first compound 0.0316 µM
[32] = second compound 10 µM, first compound 0.1 µM
[33] = second compound 10 µM, first compound 0.316 µM
[34] = second compound 10 µM, first compound 1 µM
[35] = second compound 10 µM, first compound 3.16 µM
[36] = second compound 10 µM, first compound 10 µM
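Note: spheroids exposed to agents for seven days before the viability read.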

## CC1(C)CCC(Nc2ncc(C(F)(F)F)c(-c3c[nH]c4c(P(C)(C)=O)c(C#N)ccc34)n2)CN1 (stereo unspecified) + Cc1nc(NC(=O)N2CCCC2C(N)=O)sc1-c1ccnc(C(C)(C)C(F)(F)F)c1
Second compound 0.0316 µM
  IC50: < 31.6 nM
Second compound 0.1 µM
  IC50: < 31.6 nM
Second compound 0.316 µM
  IC50: < 31.6 nM
Second compound 1 µM
  IC50: < 31.6 nM
Second compound 3.16 µM
  IC50: < 31.6 nM
Second compound 10 µM
  IC50: < 31.6 nM
[1]
  viability, T/C: 20.2%
[2]
  viability, T/C: 20.2%
[3]
  viability, T/C: 26.7%
[4]
  viability, T/C: 25.1%
[5]
  viability, T/C: 29.1%
[6]
  viability, T/C: 2.24%
[7]
  viability, T/C: 22.8%
[8]
  viability, T/C: 21.6%
[9]
  viability, T/C: 25.9%
[10]
  viability, T/C: 23%
[11]
  viability, T/C: 28.9%
[12]
  viability, T/C: 1.52%
[13]
  viability, T/C: 17.8%
[14]
  viability, T/C: 20%
[15]
  viability, T/C: 19.3%
[16]
  viability, T/C: 25%
[17]
  viability, T/C: 24%
[18]
  viability, T/C: 1.82%
[19]
  viability, T/C: 14.9%
[20]
  viability, T/C: 18%
[21]
  viability, T/C: 14.6%
[22]
  viability, T/C: 20.5%
[23]
  viability, T/C: 20.2%
[24]
  viability, T/C: 1.74%
[25]
  viability, T/C: 13.2%
[26]
  viability, T/C: 15.6%
[27]
  viability, T/C: 14.9%
[28]
  viability, T/C: 15.1%
[29]
  viability, T/C: 18.4%
[30]
  viability, T/C: 1%
[31]
  viability, T/C: 12.7%
[32]
  viability, T/C: 10.6%
[33]
  viability, T/C: 11.6%
[34]
  viability, T/C: 17.2%
[35]
  viability, T/C: 12.3%
[36]
  viability, T/C: 0.79%

## Cn1nccc1Nc1nccc(-c2ccn(C(CO)c3ccc(Cl)c(F)c3)c(=O)c2)n1 (stereo unspecified) + COc1c(OCCCN2CCOCC2)ccc2c3n(c(=NC(=O)c4cnc(N)nc4)nc12)CCN3
Second compound 0.00316 µM
  IC50: > 10000 nM
Second compound 0.01 µM
  IC50: > 10000 nM
Second compound 0.0316 µM
  IC50: > 10000 nM
Second compound 0.1 µM
  IC50: 73.6 nM
Second compound 0.316 µM
  IC50: < 31.6 nM
Second compound 1 µM
  IC50: < 31.6 nM
Second compound 0.00316 µM, first compound 0.0316 µM
  viability, T/C: 97%
Second compound 0.00316 µM, first compound 0.1 µM
  viability, T/C: 98.1%
Second compound 0.00316 µM, first compound 0.316 µM
  viability, T/C: 94.2%
Second compound 0.00316 µM, first compound 1 µM
  viability, T/C: 89.3%
Second compound 0.00316 µM, first compound 3.16 µM
  viability, T/C: 92.1%
Second compound 0.00316 µM, first compound 10 µM
  viability, T/C: 82.7%
Second compound 0.01 µM, first compound 0.0316 µM
  viability, T/C: 88.5%
Second compound 0.01 µM, first compound 0.1 µM
  viability, T/C: 99%
Second compound 0.01 µM, first compound 0.316 µM
  viability, T/C: 88%
Second compound 0.01 µM, first compound 1 µM
  viability, T/C: 94%
Second compound 0.01 µM, first compound 3.16 µM
  viability, T/C: 91.9%
Second compound 0.01 µM, first compound 10 µM
  viability, T/C: 97.6%
[1]
  viability, T/C: 83.4%
[2]
  viability, T/C: 69.7%
[3]
  viability, T/C: 76%
[4]
  viability, T/C: 84.7%
[5]
  viability, T/C: 87.2%
[6]
  viability, T/C: 64.2%
[7]
  viability, T/C: 49.1%
[8]
  viability, T/C: 49.2%
[9]
  viability, T/C: 46.9%
[10]
  viability, T/C: 49.6%
[11]
  viability, T/C: 44.8%
[12]
  viability, T/C: 32.2%
[13]
  viability, T/C: 11.8%
[14]
  viability, T/C: 11.1%
[15]
  viability, T/C: 11.1%
[16]
  viability, T/C: 11.4%
[17]
  viability, T/C: 6.95%
[18]
  viability, T/C: 2.26%
[19]
  viability, T/C: 1.52%
[20]
  viability, T/C: 1.16%
[21]
  viability, T/C: 1.02%
[22]
  viability, T/C: 1.12%
[23]
  viability, T/C: 1.77%
[24]
  viability, T/C: 0.33%

## C=CC(=O)N1CCN(c2nc(=O)n(-c3c(C)ccnc3C(C)C)c3nc(-c4c(O)cccc4F)c(F)cc23)C(C)C1 (stereo unspecified) + CC(Nc1ncnc2nc[nH]c12)c1cc2cccc(Cl)c2c(=O)n1-c1ccccc1
Second compound 0.0316 µM
  IC50: > 10000 nM
Second compound 0.1 µM
  IC50: > 10000 nM
Second compound 0.316 µM
  IC50: > 10000 nM
Second compound 1 µM
  IC50: > 10000 nM
Second compound 3.16 µM
  IC50: > 10000 nM
Second compound 10 µM
  IC50: > 10000 nM
[1]
  viability, T/C: 93.1%
[2]
  viability, T/C: 84.5%
[3]
  viability, T/C: 103%
[4]
  viability, T/C: 103%
[5]
  viability, T/C: 98.7%
[6]
  viability, T/C: 94.1%
[7]
  viability, T/C: 98.7%
[8]
  viability, T/C: 94.5%
[9]
  viability, T/C: 96.4%
[10]
  viability, T/C: 115%
[11]
  viability, T/C: 108%
[12]
  viability, T/C: 95.5%
[13]
  viability, T/C: 110%
[14]
  viability, T/C: 106%
[15]
  viability, T/C: 103%
[16]
  viability, T/C: 116%
[17]
  viability, T/C: 106%
[18]
  viability, T/C: 88.1%
[19]
  viability, T/C: 103%
[20]
  viability, T/C: 98.4%
[21]
  viability, T/C: 108%
[22]
  viability, T/C: 102%
[23]
  viability, T/C: 98.7%
[24]
  viability, T/C: 97.7%
[25]
  viability, T/C: 96%
[26]
  viability, T/C: 114%
[27]
  viability, T/C: 106%
[28]
  viability, T/C: 115%
[29]
  viability, T/C: 115%
[30]
  viability, T/C: 93.2%
[31]
  viability, T/C: 98%
[32]
  viability, T/C: 89.4%
[33]
  viability, T/C: 90.1%
[34]
  viability, T/C: 99.2%
[35]
  viability, T/C: 102%
[36]
  viability, T/C: 88.1%
